# Assay results reported in patent US20050075494A1, “Isolated nucleic acid molecules encoding a human and mouse g protein-coupled receptor-gpr54: encoded proteins, cells transformed therewith and uses thereof” (priority 2000, published 2005).
# How the values were obtained:
# Type in all cases: cell-based
# [1] = biological target: T1, Human GPR54 receptor (Homo sapiens, UniProt Q969F8, L364H); assay: aequorin assay in HEK293/aeq17 cells expressing human GPR54; conditions: aequorin luminescence, 5-fold serial dilutions, triplicates
# T1 construct: Clones containing full-length GPR54 were thus identified; expressed in transfected cells
# Procedure: The HEK293/aeq17 cell line was licensed in from NIH (Button and Brownstein, 1993, Cell Calcium, 14:663-671). The cells were grown in Dulbecco's Modified Medium (MEM, GIBCO-BRL, Gaithersburg, Md., USA)+10% fetal bovine serum (heat inactivated), 1 mM sodium pyruvate, 500 ug/ml Geneticin, 100 ug/ml streptomycin, 100 units/ml penicillin. […] Puromycin-resistant clones were selected and bulk stables were used for further analysis.
# For the aequorin assay, cell were washed once with DMEM+0.1% fetal bovine serum, and then charged for one hour at 37° C. 15% CO2 in DMEM containing 8 uM coelenterazine cp (Molecular Probes, Eugene, Oreg., USA) and 30 uM glutathione. […] The cell density was determined by counting with a hemacytometer and adjusted to 500,000 cells/ml in ECB.
# The neuropeptides were diluted in ECB into 2× concentrates using 5-fold serial dilutions, and aliquoted into assay plates in triplicates at 0.1 ml/well. The cell suspension was injected at 0.1 ml/well, read and integrated for a total of 400 readings using a luminometer (Luminoskan Ascent, Labsystems Oy, Helsinki, Finland). Data was analyzed using the software GraphPad Prism Version 3.0 (GraphPad Software, Inc., San Diego, Calif., USA).
# [2] = biological target: T2, rat GPR54 (Rattus norvegicus, UniProt Q924U1); assay: β-lactamase reporter enzyme assay in CHO-NPAT-bla cells expressing rat GPR54
# T2 construct: expressed in transfected cells
# Procedure: The full-length coding sequence of rat GPR54 was sub-cloned into the expression vector pIRESpuromycin (Clontech, Palo Alto, Calif., USA) in accordance with the manufactures directions. This GPR54 plasmid was transfected into Aurora's CHO-NPAT-bla cells using the reagent Lipofectamine 2000 (GIBCO-BRL, Gaithersburg, Md., USA). Puromycin-resistant bulk stables expressing rat GPR54 were selected and used for screening for agonist.
# β-lactamase assays were carried as described by (Zlokarnik et al., 1998, Quantitation of transcription and clonal selection of single living cells with beta-lactamase as reporter. Science 1998, 279:84-88). All peptides were from Phoenix Pharmaceuticals. […] Four (4) hours after the addition of ligands, cells were loaded with dye and measured for fluorescence approximately 45 minutes later.
# An extremely sensitive transcription-based assay is disclosed in Zlokarnik et al., 1998, Science 279:84-88 (Zlokarnik) and also in U.S. Pat. No. 5,741,657, both of which are incorporated by reference in their entirety herein. […] This increase in β-lactamase is measured by treating the cells with a cell-permeable dye that is a substrate for cleavage by β-lactamase. […] In the intact dye, the two fluorescent moieties are physically linked, and thus close enough to one another that fluorescence resonance energy transfer FRET) can take place between them. […]
# [3] = system: Control cells (cells that do not express rat GPR54); assay: β-lactamase reporter assay in control cells; conditions: data not shown
# Procedure: β-lactamase assays were carried as described by (Zlokarnik et al., 1998, Quantitation of transcription and clonal selection of single living cells with beta-lactamase as reporter. Science 1998, 279:84-88). All peptides were from Phoenix Pharmaceuticals. Cells were seeded two days prior to assay. The day before being assayed, cells were changed to serum-free media. Four (4) hours after the addition of ligands, cells were loaded with dye and measured for fluorescence approximately 45 minutes later.
# These peptides were then individually tested against GPR54-expressing cells.
# T2 sequence (Q924U1 whole entry): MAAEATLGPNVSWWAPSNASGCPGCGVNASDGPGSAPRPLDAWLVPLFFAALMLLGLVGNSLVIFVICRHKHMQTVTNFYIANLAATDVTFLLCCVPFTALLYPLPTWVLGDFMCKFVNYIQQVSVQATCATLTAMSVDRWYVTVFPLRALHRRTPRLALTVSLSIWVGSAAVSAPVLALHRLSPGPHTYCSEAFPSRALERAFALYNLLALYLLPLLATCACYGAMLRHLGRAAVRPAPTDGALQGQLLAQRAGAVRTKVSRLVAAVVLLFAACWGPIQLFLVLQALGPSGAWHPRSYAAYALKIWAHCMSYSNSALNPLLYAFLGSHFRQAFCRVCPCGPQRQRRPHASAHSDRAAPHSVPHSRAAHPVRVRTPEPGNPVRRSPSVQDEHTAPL
# T1 sequence (Q969F8 whole entry L364H): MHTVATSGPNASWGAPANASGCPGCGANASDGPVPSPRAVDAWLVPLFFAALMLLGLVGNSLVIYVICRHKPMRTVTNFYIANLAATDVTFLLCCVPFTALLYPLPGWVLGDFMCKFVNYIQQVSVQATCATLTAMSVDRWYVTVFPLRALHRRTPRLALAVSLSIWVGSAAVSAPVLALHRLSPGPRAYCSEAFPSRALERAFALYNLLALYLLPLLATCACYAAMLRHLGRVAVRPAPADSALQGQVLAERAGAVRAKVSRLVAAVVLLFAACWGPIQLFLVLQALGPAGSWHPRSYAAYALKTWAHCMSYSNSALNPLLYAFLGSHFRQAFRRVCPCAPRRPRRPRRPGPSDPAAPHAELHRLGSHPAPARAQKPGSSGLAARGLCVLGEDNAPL
response of cells expressing Human GPR54 receptor (FIG. 9) [1],"activation of rat GPR54 in the primary screening ([2]; primary agonist screening, cells expressing rat GPR54, β-lactamase readout 4 hours after ligand addition)",Substance,dose-response activation of rat GPR54 (FIG. 8) ([2]; peptides individually tested against GPR54-expressing cells),response of control cells [3]
"robust, dose-dependent response",,antho-RW amide II,,
"robust, dose-dependent response",activate rat GPR54 specifically,antho-RWamide I,activated rat GPR54 in a dose-dependent manner,no response
